Inconclusive results and toxic doses are left out. No stated cut-off is given here; in the data, active means T/C of 150% or more; inactive means T/C below 125%.
System: L1210 leukemia ip in BDF1 mice, survival T/C
Assay: NCI In Vivo Anticancer Drug Screen. Data for tumor model L1210 Leukemia (intraperitoneal) in B6D2F1 (BDF1) mice
Conditions: endpoint: mean survival time, higher = longer survival
Procedure, shortened: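 Mice bearing the transplanted tumor received compound or vehicle. Survival of the treated group was divided by that of the vehicle-treated control group to give the ratio.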

[1] = dose: 100.0 mg/kg/injection, schedule: Q01DX001 (ip), vehicle: saline with Tween-80
[2] = dose: 200.0 mg/kg/injection, schedule: Q01DX001 (ip), vehicle: saline with Tween-80
[3] = dose: 400.0 mg/kg/injection, schedule: Q01DX001 (ip), vehicle: saline with Tween-80
[4] = dose: 100.0 mg/kg/injection, schedule: Q01DX009 (ip), vehicle: saline with Tween-80
[5] = dose: 200.0 mg/kg/injection, schedule: Q01DX009 (ip), vehicle: saline with Tween-80
[6] = dose: 100.0 mg/kg/injection, schedule: Q01DX001 (ip), vehicle: Klucel (hydroxypropylcellulose) (HPC)
[7] = dose: 200.0 mg/kg/injection, schedule: Q01DX001 (ip), vehicle: Klucel (hydroxypropylcellulose) (HPC)
[8] = dose: 100.0 mg/kg/injection, schedule: Q01DX009 (ip), vehicle: saline
[9] = dose: 200.0 mg/kg/injection, schedule: Q01DX009 (ip), vehicle: saline
[10] = dose: 100.0 mg/kg/injection, schedule: Q01DX009 (ip), vehicle: Klucel (hydroxypropylcellulose) (HPC)
[11] = dose: 200.0 mg/kg/injection, schedule: Q01DX009 (ip), vehicle: Klucel (hydroxypropylcellulose) (HPC)
[12] = dose: 100.0 mg/kg/injection, schedule: Q04DX003 (ip), vehicle: saline with Tween-80
[13] = dose: 200.0 mg/kg/injection, schedule: Q04DX003 (ip), vehicle: saline with Tween-80

Measured: T/C

O=c1cc(C23CC4CC(CC(C4)C2)C3)[nH]c(=S)[nH]1
inactive: [1] 92 % of control | [2] 108 % of control | [3] 94 % of control

CCN(CC)C/C=C/C(C)Nc1ccnc2cc(Cl)ccc12 (configuration not stated)
inactive: dose: 5.0 mg/kg/injection, schedule: Q04DX002 (ip), vehicle: saline with Tween-80 98 % of control | dose: 10.0 mg/kg/injection, schedule: Q04DX002 (ip), vehicle: saline with Tween-80 98 % of control | dose: 20.0 mg/kg/injection, schedule: Q04DX002 (ip), vehicle: saline with Tween-80 94 % of control

CC(=O)c1cccc(NC(=O)N2CCN(c3ccccc3)CC2)c1
inactive: [4] 111 % of control | [5] 100 % of control

CC(C)C(C)/C=C/C(C)C1CCC2C3CCC4CC(O)CCC4(C)C3CCC12C (configuration not stated)
inactive: [6] 90 % of control | [7] 97 % of control

CCN(CC)C(=O)Cn1ccc(N)nc1=O
inactive: [8] 115 % of control | dose: 100.0 mg/kg/injection, schedule: Q04DX003 (ip), vehicle: saline 100 % of control | [9] 98 % of control | dose: 200.0 mg/kg/injection, schedule: Q04DX003 (ip), vehicle: saline 100 % of control | dose: 400.0 mg/kg/injection, schedule: Q01DX009 (ip), vehicle: saline 97 % of control | dose: 400.0 mg/kg/injection, schedule: Q04DX003 (ip), vehicle: saline 102 % of control

COc1cccc(/C=C/c2nc3ccccc3nc2/C=C/c2cccc(OC)c2OC)c1OC
inactive: dose: 50.0 mg/kg/injection, schedule: Q01DX009 (ip), vehicle: Klucel (hydroxypropylcellulose) (HPC) 95 % of control | [10] 92 % of control | [11] 101 % of control

O=C1c2ccccc2-c2cccc(I)c21
inactive: dose: 100.0 mg/kg/injection, schedule: Q01DX001 (ip), vehicle: carboxymethylcellulose (CMC) 99 % of control | dose: 200.0 mg/kg/injection, schedule: Q01DX001 (ip), vehicle: carboxymethylcellulose (CMC) 101 % of control | dose: 400.0 mg/kg/injection, schedule: Q01DX001 (ip), vehicle: carboxymethylcellulose (CMC) 92 % of control

NC1=C(Sc2ccccc2)C(=O)c2ccccc2C1=O
inactive: [1] 105 % of control | [2] 94 % of control | [3] 94 % of control

CCCc1cnc(NCCCC(N)C(=O)O)nc1 (configuration not stated)
inactive: dose: 25.0 mg/kg/injection, schedule: Q04DX002 (ip), vehicle: saline 95 % of control | dose: 50.0 mg/kg/injection, schedule: Q04DX002 (ip), vehicle: saline 95 % of control | dose: 100.0 mg/kg/injection, schedule: Q04DX002 (ip), vehicle: saline 89 % of control

CCCCCC/C=C/C=C/C(C)C
inactive: dose: 75.0 mg/kg/injection, schedule: Q01DX001 (ip), vehicle: saline 95 % of control | dose: 75.0 mg/kg/injection, schedule: Q04DX003 (ip), vehicle: saline 104 % of control | dose: 150.0 mg/kg/injection, schedule: Q01DX001 (ip), vehicle: saline 101 % of control | dose: 150.0 mg/kg/injection, schedule: Q04DX003 (ip), vehicle: saline 102 % of control | dose: 300.0 mg/kg/injection, schedule: Q01DX001 (ip), vehicle: saline 105 % of control | dose: 300.0 mg/kg/injection, schedule: Q04DX003 (ip), vehicle: saline 100 % of control

CN(CCO)C(=O)/C=C/c1ccc(O)cc1
inactive: dose: 50.0 mg/kg/injection, schedule: Q01DX009 (ip), vehicle: saline 95 % of control | [8] 95 % of control | [9] 101 % of control

CCOC(=O)c1ccc(N=NN(C)CC(C)C)cc1
inactive: [6] 107 % of control | [10] 112 % of control | dose: 100.0 mg/kg/injection, schedule: Q04DX003 (ip), vehicle: Klucel (hydroxypropylcellulose) (HPC) 105 % of control | [7] 104 % of control | [11] 122 % of control | dose: 200.0 mg/kg/injection, schedule: Q04DX003 (ip), vehicle: Klucel (hydroxypropylcellulose) (HPC) 107 % of control | dose: 400.0 mg/kg/injection, schedule: Q01DX001 (ip), vehicle: Klucel (hydroxypropylcellulose) (HPC) 107 % of control | dose: 400.0 mg/kg/injection, schedule: Q04DX003 (ip), vehicle: Klucel (hydroxypropylcellulose) (HPC) 108 % of control

ClC1=NC(c2ccc(Cl)cc2)N2C1C2c1ccccc1 (configuration not stated)
inactive: [12] 92 % of control | [13] 92 % of control | dose: 400.0 mg/kg/injection, schedule: Q04DX003 (ip), vehicle: saline with Tween-80 94 % of control

COC(=O)[C@@H]1c2cc3c(c(O)c2[C@@H](OC2OC(C)C(OC)C(C)(OC)C2OC)C[C@]1(C)O)C(=O)c1c(O)cc2c(c1C3=O)O[C@H]1O[C@]2(C)[C@H](O)[C@@H](N(C)C)[C@@H]1O (some centres not stated)
inactive: dose: 0.2 mg/kg/injection, schedule: Q01DX Z (ip), vehicle: saline 98 % of control | dose: 0.25 mg/kg/injection, schedule: Q01DX009 (ip), vehicle: saline 102 % of control | dose: 0.3 mg/kg/injection, schedule: Q01DX Z (ip), vehicle: saline 116 % of control | dose: 0.44 mg/kg/injection, schedule: Q01DX Z (ip), vehicle: saline 107 % of control | dose: 0.5 mg/kg/injection, schedule: Q01DX009 (ip), vehicle: saline 107 % of control | dose: 0.67 mg/kg/injection, schedule: Q01DX Z (ip), vehicle: saline 112 % of control | dose: 0.8 mg/kg/injection, schedule: Q## X008 (ip), vehicle: saline 113 % of control | dose: 0.8 mg/kg/injection, schedule: Q## X032 (ip), vehicle: saline 113 % of control | dose: 1.0 mg/kg/injection, schedule: Q01DX001 (ip), vehicle: saline 115 % of control | dose: 1.0 mg/kg/injection, schedule: Q01DX009 (ip), vehicle: saline 106 % of control | dose: 1.0 mg/kg/injection, schedule: Q01DX Z (ip), vehicle: saline 107 % of control | dose: 1.5 mg/kg/injection, schedule: Q01DX Z (ip), vehicle: carboxymethylcellulose (CMC) 116 % of control | dose: 2.0 mg/kg/injection, schedule: Q01DX001 (ip), vehicle: saline 120 % of control | dose: 2.0 mg/kg/injection, schedule: Q01DX009 (ip), vehicle: saline 86 % of control | dose: 2.0 mg/kg/injection, schedule: Q01DX Z (ip), vehicle: carboxymethylcellulose (CMC) 102 % of control | dose: 4.0 mg/kg/injection, schedule: Q01DX001 (ip), vehicle: saline 114 % of control | dose: 5.0 mg/kg/injection, schedule: Q01DX001 (ip), vehicle: saline 118 % of control | dose: 8.0 mg/kg/injection, schedule: Q01DX001 (ip), vehicle: saline 108 % of control | dose: 8.0 mg/kg/injection, schedule: Q## X008 (ip), vehicle: saline 109 % of control | dose: 8.0 mg/kg/injection, schedule: Q## X032 (ip), vehicle: saline 103 % of control | dose: 10.0 mg/kg/injection, schedule: Q01DX001 (ip), vehicle: saline 109 % of control

CC(C)(N)COC(=O)c1ccccc1C(=O)O
inactive: dose: 100.0 mg/kg/injection, schedule: Q01DX001 (ip), vehicle: saline 91 % of control | dose: 200.0 mg/kg/injection, schedule: Q01DX001 (ip), vehicle: saline 96 % of control | dose: 400.0 mg/kg/injection, schedule: Q01DX001 (ip), vehicle: saline 94 % of control

CC(=O)NS(=O)(=O)c1ccc(NC(=O)c2ccccc2C(=O)O)cc1
inactive: dose: 50.0 mg/kg/injection, schedule: Q01DX009 (ip), vehicle: saline with Tween-80 102 % of control | [4] 100 % of control | [12] 95 % of control | [5] 96 % of control | [13] 93 % of control

Reference: PubChem BioAssay AID248 (DTP/NCI, 2004)
